In US8608842B2, “Infrared absorbing composition, infrared absorbing ink, recorded article, image recording method, and image detecting method” (FUJIFILM Corporation, priority 2010, dated 2013):
Like-named read-outs stand apart in the source and are kept apart here.

What was measured:
Assay type in all cases: physicochemical
[1] = Ultraviolet curable ink of Example 4: reflected light of mark for copy protection, before and after xenon irradiation; settings: xenon light of 70,000 lux, 72 hours; variation compared to the value before irradiation
Procedure: By mixing the components of the composition shown below, an ultraviolet curable ink having an infrared absorbing property was prepared.
By using the ultraviolet curable ink thus obtained, a mark for copy protection was printed on the same base paper as that used in Example 1 by Gravure printing. On top of the printed mark for copy protection, each of the three kinds of a process ink (FDOL Yellow, FDOL Magenta, and FDOL Cyan, trade names, manufactured by TOYO INK MFG. CO., LTD.) was applied as a layer by Gravure printing, or a mixture ink in which the three kinds of a process ink are mixed was applied as a layer by Gravure printing to hide the mark for copy protection, thus obtaining a printed article.
The mark for copy protection that is hidden by the process ink was irradiated with infrared light using a linear sensor (trade name: TCD1500C, manufactured by Toshiba) in which the infrared cut-off filter of linear sensor was replaced with an infrared transmitting filter (trade name: IR83, manufactured by Hoya) as a detection device, and the reflected light was detected simultaneously.
The reflection light intensity in the area of the mark for copy protection at the time of detecting the mark was divided by the reflection light intensity of the area outside the mark for copy protection. The resulting value of the comparative infrared absorbing agent A was set to 1, and a ratio of the resulting value with respect to the resulting value of the comparative infrared absorbing agent A was calculated for each compound.
In addition, the obtained printed article was irradiated continuously with xenon light of 70,000 lux for 72 hours by using a Xenon lamp. After the irradiation, similar to above, the reflection light intensity of the area of the mark for copy protection was divided by the reflection light intensity of the area outside the mark for copy protection, and the variation ratio [%] compared to the value before the irradiation was calculated to use it as an index for evaluation of light resistance.

[2] = Solubility of IR coloring material in toluene at 25° C.
Procedure: Specifics are as follows.
First, a tetrahydrofuran (THF) solution prepared by adding the IR coloring material to TI-IF is measured by a spectrophotometer and a calibration curve is constructed. Next, a liquid is prepared by adding the IR coloring material to toluene to the level that there is a part of the coloring material left undissolved. The resulting liquid is subjected to ultrasonication for 10 minutes while being maintained at 25° C., and allowed to stand overnight at 25° C. The THF solution obtained after the standing is filtered using a 0.2 μm filter. The filtrate is diluted so that it falls within the linear range of the calibration curve, the absorbance is measured, and quantification is made using the calibration curve.
The solubility shown in Table 1 was measured according to the method described below. Specifics are as follows.
First, the THF solution prepared by adding the IR coloring material to tetrahydrofuran (THF) was measured by a spectrophotometer, and the calibration curve was established. Next, a liquid was prepared by adding the IR coloring material to toluene to the level that there is a part of coloring material left undissolved. The resulting liquid was subjected to ultrasonication for 10 minutes while being kept at 25° C., and allowed to stand overnight at 25° C. The THF solution obtained after the standing was filtered using a 0.2 μm filter. The filtrate was diluted so that it falls within the linear range of the calibration curve, and the absorbance was measured. Based on the measured value, the solubility was quantified using the calibration curve.

[3] = Bar code pattern reading (PCS) of printed article before and after xenon light irradiation (light resistance); settings: xenon light of 70,000 lux, 200 hours
Procedure: By mixing the components of the composition shown below, the infrared absorbing printing ink (1) was prepared.
By using each of the infrared absorbing printing ink obtained above, a bar code pattern was formed on a regular paper (trade name: MP-120, manufactured by PLUS Corporation), i.e., a base paper, by Gravure printing.
Subsequently, on the formed bar code pattern, another bar code pattern was additionally formed by using the infrared absorbing ink (2) having the composition shown below.
Next, on top of the bar code patterns formed by disposing two layers, three kinds of process inks having infrared transmittance (FDOL Yellow, FDOL Magenta, and FDOL Cyan, manufactured by TOYO INK MFG. CO., LTD. (trade names, manufactured by TOYO INK MFG. CO., LTD.) were further applied by Gravure printing to form a colored layer made of three visible colors (cyan, magenta, and yellow). As a result, a printed article having a bar code pattern disposed inside the matter was produced.
Two kinds of semiconductor laser beam having wavelengths of 830 nm and 905 nm respectively were irradiated onto the thus obtained printed article, and the detection was made by using a filter which cuts off the emission light having wavelength of 950 nm or less. As a result, it was possible to detect the pattern formed by the infrared absorbing ink.
Subsequently, xenon light of 70,000 lux was irradiated continuously for 200 hours onto the printed article by using a xenon lamp. After that, the reading state of the bar code pattern after the irradiation was evaluated. For the evaluation, PCS (print•contrast•signal) of 0.6 or more was evaluated as “good,” and PCS (print•contrast•signal) of less than 0.6 was evaluated as “bad.” The evaluation results are shown in Table 2 below.
The printed article was prepared in the same manner as Example 1 except that the solvent (a mixture solvent of toluene and methyl isobutyl ketone) in the composition of the infrared absorbing ink (1) and (2) is replaced with n-octane (SP value: 7.6), butyl acetate (SP value: 8.5), or isopropyl alcohol (IPA; SP values: 11.5), and evaluated.
The comparative printed article was prepared in the same manner as Example 1 except that the solvent (a mixture solvent of toluene and methyl isobutyl ketone) in the composition of the infrared absorbing ink (1) and (2) is replaced with n-pentane (SP value: 7.0; Example 2) or ethanol (SP value: 12.7; Example 3), and evaluated.

[4] = Example 2, ink solvent n-pentane (SP value: 7.0)
[5] = Example 3, ink solvent ethanol (SP value: 12.7)
[6] = ink solvent IPA (SP value: 11.5)
[7] = ink solvent butyl acetate (SP value: 8.5)
[8] = ink solvent n-octane (SP value: 7.6)
[9] = ink solvent toluene/methyl isobutyl ketone = 70/30

| Compound | Variation amount after irradiation [%] [1] [%] | Solubility [mg/ml] Solvent: toluene ([2]; toluene, 25° C.) [mg/mL] | Reading after irradiation [3, 4] | Reading after irradiation [3, 5] | Reading after irradiation [3, 6] | Reading after irradiation [3, 7] | Reading after irradiation [3, 8] | Reading after irradiation [3, 9] | Solubility [mg/ml] Solvent: toluene [2] [mg/mL] |
| --- | --- | --- | --- | --- | --- | --- | --- | --- | --- |
| Nc1ccccc1Sc1c2c(c(Sc3ccccc3N)c3c1C1=Nc4c5c(Sc6ccccc6N)c6c(c(Sc7ccccc7N)c5c5[n]4[V](=[O])[n]4c(c7c(Sc8ccccc8N)c8c(c(Sc9ccccc9N)c7c4=NC4=NC(=N5)c5c(Sc7ccccc7N)c7c(c(Sc9ccccc9N)c54)NC4C=CC=CC4S7)SC4C=CC=CC4N8)=NC3=N1)NC1C=CC=CC1S6)SC1C=CC=CC1N2 (stereo not shown) [Compound 71] | 3 | 16 | Bad (PCS (print•contrast•signal) of less than 0.6 was evaluated as “bad.”) | Bad (PCS (print•contrast•signal) of less than 0.6 was evaluated as “bad.”) | Good (PCS (print•contrast•signal) of 0.6 or more was evaluated as “good,”) | Good (PCS (print•contrast•signal) of 0.6 or more was evaluated as “good,”) | Good (PCS (print•contrast•signal) of 0.6 or more was evaluated as “good,”) | Good (PCS (print•contrast•signal) of 0.6 or more was evaluated as “good,”) |  |
| CCCCCCCCOc1c2c(c(OCCCCCCCC)c3ccccc13)C1=Nc3c4c(OCCCCCCCC)c5ccccc5c(OCCCCCCCC)c4c4[n]3[Zn][n]3c(c5c(OCCCCCCCC)c6ccccc6c(OCCCCCCCC)c5c3=NC3=NC(=N4)c4c3c(OCCCCCCCC)c3ccccc3c4OCCCCCCCC)=NC2=N1 [Compound 27] | 4 |  | Bad (PCS (print•contrast•signal) of less than 0.6 was evaluated as “bad.”) | Bad (PCS (print•contrast•signal) of less than 0.6 was evaluated as “bad.”) | Good (PCS (print•contrast•signal) of 0.6 or more was evaluated as “good,”) | Good (PCS (print•contrast•signal) of 0.6 or more was evaluated as “good,”) | Good (PCS (print•contrast•signal) of 0.6 or more was evaluated as “good,”) | Good (PCS (print•contrast•signal) of 0.6 or more was evaluated as “good,”) | 25 |
| N,N,N′,N′-tetrakis(p-di-n-butylaminophenyl)-p-phenylene diaminium perchlorate salt [reference compound] | 16 | 32 |  |  |  |  |  | Bad (PCS (print•contrast•signal) of less than 0.6 was evaluated as “bad.”) |  |
| Nc1ccccc1Sc1c2c(c(Sc3ccccc3N)c3c1C1=Nc4c5c(Sc6ccccc6N)c6c(c(Sc7ccccc7N)c5c5[n]4[Cu][n]4c(c7c(Sc8ccccc8N)c8c(c(Sc9ccccc9N)c7c4=NC4=NC(=N5)c5c(Sc7ccccc7N)c7c(c(Sc9ccccc9N)c54)NC4C=CC=CC4S7)SC4C=CC=CC4N8)=NC3=N1)NC1C=CC=CC1S6)SC1C=CC=CC1N2 (stereo not shown) [Compound 69] | 4 | 12 | Bad (PCS (print•contrast•signal) of less than 0.6 was evaluated as “bad.”) | Bad (PCS (print•contrast•signal) of less than 0.6 was evaluated as “bad.”) | Good (PCS (print•contrast•signal) of 0.6 or more was evaluated as “good,”) | Good (PCS (print•contrast•signal) of 0.6 or more was evaluated as “good,”) | Good (PCS (print•contrast•signal) of 0.6 or more was evaluated as “good,”) | Good (PCS (print•contrast•signal) of 0.6 or more was evaluated as “good,”) |  |
| CCOc1c2c(c(OCC)c3ccccc13)-c1nc-2nc2[n-]c(nc3nc(nc4[n-]c(n1)c1c(OCC)c5ccccc5c(OCC)c41)-c1c-3c(OCC)c3ccccc3c1OCC)c1c(OCC)c3ccccc3c(OCC)c21.[Cu+2] [Compound 23] | 4 | 1.75 | Bad (PCS (print•contrast•signal) of less than 0.6 was evaluated as “bad.”) | Bad (PCS (print•contrast•signal) of less than 0.6 was evaluated as “bad.”) | Good (PCS (print•contrast•signal) of 0.6 or more was evaluated as “good,”) | Good (PCS (print•contrast•signal) of 0.6 or more was evaluated as “good,”) | Good (PCS (print•contrast•signal) of 0.6 or more was evaluated as “good,”) | Good (PCS (print•contrast•signal) of 0.6 or more was evaluated as “good,”) |  |
| CCCCCCCCN1/C(=C/C=C/C=C/C=C/C2=[N+](CCCCCCCC)c3ccc4ccccc4c3C2(C)C)C(C)(C)c2c1ccc1ccccc21.Cc1ccc(S(=O)(=O)[O-])cc1 [reference compound] | 21 | 43 |  |  |  |  |  | Bad (PCS (print•contrast•signal) of less than 0.6 was evaluated as “bad.”) |  |
| CCCCOc1c2c(c(OCCCC)c3ccccc13)C1=Nc3c4c(OCCCC)c5ccccc5c(OCCCC)c4c4[n]3[Cu][n]3c(c5c(OCCCC)c6ccccc6c(OCCCC)c5c3=NC3=NC(=N4)c4c3c(OCCCC)c3ccccc3c4OCCCC)=NC2=N1 [Compound 24] | 3 | 16 | Bad (PCS (print•contrast•signal) of less than 0.6 was evaluated as “bad.”) | Bad (PCS (print•contrast•signal) of less than 0.6 was evaluated as “bad.”) | Good (PCS (print•contrast•signal) of 0.6 or more was evaluated as “good,”) | Good (PCS (print•contrast•signal) of 0.6 or more was evaluated as “good,”) | Good (PCS (print•contrast•signal) of 0.6 or more was evaluated as “good,”) | Good (PCS (print•contrast•signal) of 0.6 or more was evaluated as “good,”) |  |
